“Also recorded” adds a separate entry of the source.
Tests used:
[1] = system: rats with permanent ligation of bilateral common carotid arteries (2-VO model); assay: Morris' water maze (training latency, platform exploration) in 2-VO hypoperfusion model; format: in vivo, Wistar rats; conditions: for improvement of latency / search strategy in water maze / effect on detention time in the target quadrant (platform exploration test): 2-VO rats; for improvement of latency / search strategy in water maze: vs solvent control; for amelioration of impaired short-term memory and spatial orientation (overall conclusion): 2-VO rats with poor blood supply to brain, L-NBP at 10 mg/kg, 10 mg/kg
[2] = system: rats with continuous perfusion of Aβ (1-40) into lateral ventricle; assay: Morris' water maze and working memory test after continuous i.c.v. perfusion of Aβ (1-40); format: in vivo, Wistar rats; conditions: continuous perfusion of Aβ (1-40) into lateral ventricle, rats, Morris' water maze
Method: For Morris' Water Maze Automatic Monitor and experimental protocols, reference may be made to the experiments of learning and memory damage of rats induced by brain hypoperfusion.
Male Wistar rats, which were 10-weeks old and weighed approximately 280 grams, were used. One animal was placed in one cage, while the room temperature was kept at 23° C., with food and water freely accessible. Rats were anaesthetized with sodium pentobarbital (40 mg/kg), and were fixed to stereotaxic apparatus with the position of ventral decubitus. Head skin was cut open, a cannula for Aβ (1-40) perfusion was implanted into right ventricle. According to the stereotaxic profile of rat brain by Paxions and Watson, the implantation site was located 0.3 mm behind and 1.1 mm in the right side of anterior fontanelle, with the depth of 4.0 mm. The cannula was connected to a micro-osmotic pump. The pump was placed on the back of the rat. Aβ (1-40) was dissolved in 35% acetonitrile/0.1% trifluroacetic acid, and was continuously perfused intracerebroventricularly (i.c.v.) at 300 pmol/day, while only the solvent (35% acetonitrile/0.1% trifluroacetic acid) was perfused in the control group.
Rats were randomly classified into […] groups, with 10 animals per group. 1) the sham surgery group: only 35% acetonitrile/0.1% trifluroacetic acid+solvent was perfused into the ventricles of the rats; 2) the model group: Aβ (1-40)+solvent; 3) Aβ (1-40)+L-NBP 10 mg/kg group; 4) Aβ (1-40)+L-NBP 30 mg/kg group. Respective drug or solvent was drenched since the 2nd day after the surgery. The water maze experiment was performed on the 9-13 day after the surgery, while the platform exploration experiment was performed on the 13th day, and the working memory test was performed on the 14-16th days. Animals were decapitated to remove brains for biochemical assay on the 17th day. In all ethological tests, medicines were administered 40 minutes prior to the respective test.
The water maze training experiment was performed on the 9-13th day after icv Aβ (1-40), and the platform exploration experiment was performed on the 13 day after that. The working memory test was performed on the 14-16th day after icv Aβ (1-40) (see the figure above), which investigated the ability of rapid learning and spatial memory in animals when the platform and quadrant were changed, based on the fact that animals had memorized in some extent after training and platform exploration experiment. Experimental procedure was similar to the standard water maze training experiment except that the platform's location was changed every day. The experiment was conducted five times every day, allowing the rats to start swimming from five water-entry sites respectively. […] In the following 4 experiments, the location of the platform was kept constant, yet the water entry sites were within different quadrants. The latency of working memory was calculated by averaging those of the 2-5th experiments, and the ability of working memory of each rat was calculated by averaging the experimental values in 3 days.
All results were expressed in mean±standard error. Comparison of latencies between groups in water maze experiment was performed using two-factor analysis of variance in replicate. Comparison between groups was performed using post hoc LSD or Turkey test. Platform exploration test in water maze experiment, working memory test and biochemical assay were analyzed using one-factor analysis of variance. A difference was considered significant when p<0.05.

[3] = system: rats with coriamyrtin-induced impaired learning and memory; conditions: Shuren Yu et al. 1988, cited from earlier work

Row | Compound | improvement of latency / search strategy in water maze ([1]; 30 mg/kg oral) | amelioration of impaired short-term memory and spatial orientation (overall conclusion) [1] | amelioration of impaired short-term memory and spatial orientation (overall conclusion) ([1]; listed as D-butylphthalide) | amelioration of impaired short-term memory and stereotaxic memory (overall conclusion) [2] | effect on detention time in the target quadrant (platform exploration test) ([1]; 10 mg/kg oral) | improvement of latency / search strategy in water maze ([1]; 10 mg/kg oral) | effect on detention time in the target quadrant (platform exploration test) ([1]; 30 mg/kg oral) | amelioration of impaired short-term memory and spatial orientation (overall conclusion) ([1]; listed as racemic (DL-)) | amelioration of impaired short-term memory and spatial orientation (overall conclusion) ([1]; listed as racemic butylphthalide) | improvement of impaired learning and memory induced by coriamyrtin [3] | protection of hippocampal cells ([3]; coriamyrtin)
1 | CCCC[C@H]1OC(=O)c2ccccc21 [D-NBP, D-n-butylphthalide] | no significant effect of improvement; also recorded: no obvious improved effect | could not | neither racemic butylphthalide nor D-butylphthalide were effective | neither D-NBP nor DL-NBP showed similar effects |  |  |  |  |  |  | 
2 | CCCCC1OC(=O)c2ccccc21 (racemic) [DL-NBP, 3-n-butylphthalide] | no significant effect of improvement; also recorded: no obvious improved effect |  |  | neither D-NBP nor DL-NBP showed similar effects | no effect | no significant effect of improvement; also recorded: no obvious improved effect | no effect | could not | neither racemic butylphthalide nor D-butylphthalide were effective | could be used to improve the impaired learning and memory | protect hippocampal cells

Source: patent publication US8552058B2, “Application of L-n-butylphthalide in preventing and treating dementia” (CSPC Zhongqi Pharmaceutical Technology (Shijazhuang) Co., …, priority 2004, dated 2013)
